Experimental data from patent publication US7351737B2, “4-[(8-substituted)-6-chromanoyl]-and 4-[8-substituted)-chroman-6-YL-ethynyl]-benzoic and phenylacetic acids, their esters and salts having cytochrome P450RAI inhibitory activity” (Allergan, Inc., priority 2002, dated 2008).

Legend:
RARα = biological target: T1, RARα (Homo sapiens, UniProt P10276); assay: ligand binding assay, RARα; settings: last item of cell, read-out: RAR α Kd
T1 sequence (P10276 1-462): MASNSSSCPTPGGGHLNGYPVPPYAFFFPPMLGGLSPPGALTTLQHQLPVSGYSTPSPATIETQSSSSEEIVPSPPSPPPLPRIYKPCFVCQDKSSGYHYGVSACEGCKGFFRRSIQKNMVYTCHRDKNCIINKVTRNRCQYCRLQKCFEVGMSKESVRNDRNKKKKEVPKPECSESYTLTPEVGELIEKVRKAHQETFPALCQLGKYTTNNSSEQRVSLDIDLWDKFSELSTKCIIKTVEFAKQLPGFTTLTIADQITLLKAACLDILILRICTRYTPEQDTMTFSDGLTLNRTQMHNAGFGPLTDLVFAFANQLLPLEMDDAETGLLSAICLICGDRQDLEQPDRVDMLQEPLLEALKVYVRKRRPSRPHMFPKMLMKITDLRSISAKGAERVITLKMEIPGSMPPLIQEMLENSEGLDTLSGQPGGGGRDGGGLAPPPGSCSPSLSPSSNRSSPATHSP
From the text: (§1) Assays described below measure the ability of a compound to bind to, and/or activate various retinoid receptor subtypes. When in these assays a compound binds to a given receptor subtype and activates the transcription of a reporter gene through that subtype, then the compound is considered an agonist of that receptor subtype. […] In the below described assays the ability of the compounds to bind to RARα, RARβ, RARγ, RXRα, RXRβ and RXRγ receptors, and the ability or inability of the compounds to activate transcription of a reporter gene through these receptor subtypes can be tested.
(§2) A holoreceptor transactivation assay and a ligand binding assay which measure the antagonist/agonist like activity of the compounds of the invention, or their ability to bind to the several retinoid receptor subtypes, respectively, are described in published PCT Application No. WO WO93/11755 (particularly on pages 30-33 and 37-41) published on Jun. 24, 1993, the specification of which is also incorporated herein by reference. A detailed experimental procedure for holoreceptor transactivations has been described by Heyman et al. Cell 68, 397-406, (1992); Allegretto et al. J. Biol. Chem. 268, 26625-26633, and Mangelsdorf et al. The Retinoids: Biology, Chemistry and Medicine, pp 319-349, Raven Press Ltd., New York, which are expressly incorporated herein by reference. The results obtained in this assay are expressed in EC50 numbers, as they are also in the chimeric receptor transactivation assay. The results of ligand binding assay are expressed in Kd numbers. (See Cheng et al. Biochemical Pharmacology Vol. 22 pp 3099-3108, expressly incorporated herein by reference.)
(§3) The results of the ligand binding assay for several preferred compounds of the invention are included in Table 1.

RARγ = biological target: T2, RARγ (Homo sapiens, UniProt P13631); assay: ligand binding assay, RARγ; settings: last item of cell, read-out: RAR γ Kd
T2 sequence (P13631 1-454): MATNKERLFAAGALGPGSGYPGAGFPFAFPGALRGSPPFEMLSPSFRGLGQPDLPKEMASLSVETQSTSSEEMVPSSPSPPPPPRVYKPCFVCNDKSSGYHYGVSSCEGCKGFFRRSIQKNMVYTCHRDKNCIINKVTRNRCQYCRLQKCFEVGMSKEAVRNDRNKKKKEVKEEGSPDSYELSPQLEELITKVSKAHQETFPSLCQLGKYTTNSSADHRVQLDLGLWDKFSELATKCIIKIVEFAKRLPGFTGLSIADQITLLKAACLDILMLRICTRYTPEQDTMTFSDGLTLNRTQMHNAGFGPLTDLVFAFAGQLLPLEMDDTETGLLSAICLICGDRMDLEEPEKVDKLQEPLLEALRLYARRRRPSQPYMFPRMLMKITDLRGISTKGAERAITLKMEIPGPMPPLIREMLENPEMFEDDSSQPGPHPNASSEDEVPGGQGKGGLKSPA
From the text: as §1, §2, §3

RARβ = biological target: T3, RARβ (Homo sapiens, UniProt P10826); assay: ligand binding assay, RARβ; settings: last item of cell, read-out: RAR β Kd
T3 sequence (P10826 1-455): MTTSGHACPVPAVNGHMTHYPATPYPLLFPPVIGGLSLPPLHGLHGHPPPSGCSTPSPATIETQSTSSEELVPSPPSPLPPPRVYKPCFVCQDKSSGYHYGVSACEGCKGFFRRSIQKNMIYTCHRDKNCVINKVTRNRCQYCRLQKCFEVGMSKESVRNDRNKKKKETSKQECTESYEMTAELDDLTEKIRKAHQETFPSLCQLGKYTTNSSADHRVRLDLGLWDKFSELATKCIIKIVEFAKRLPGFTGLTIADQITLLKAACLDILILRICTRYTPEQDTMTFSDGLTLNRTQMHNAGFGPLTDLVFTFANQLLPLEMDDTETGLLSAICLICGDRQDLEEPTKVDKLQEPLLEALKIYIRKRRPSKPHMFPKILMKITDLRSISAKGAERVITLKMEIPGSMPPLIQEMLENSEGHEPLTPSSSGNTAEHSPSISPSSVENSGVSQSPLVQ
From the text: as §1, §2, §3

| Kd (RARα) [µM] | Kd (RARγ) [µM] | Kd (RARβ) [µM] | SMILES |
| --- | --- | --- | --- |
| > 10 | > 10 | 4.95 | C#Cc1cc(C#Cc2ccc(CC(=O)O)c(F)c2)cc2c1OC(C)(C)CC2(C)C [Compound 41, [4-(8-Ethynyl-2,2,4,4-tetramethyl-chroman-6-ylethynyl)-2-fluoro-phenyl]-acetic acid] |
| > 10 | > 10 | > 10 | C#Cc1cc(C(=O)Oc2ccc(CC(=O)OCC)cc2)cc2c1OC(C)(C)CC2(C)C [Compound 2, 8-Ethynyl-2,2,4,4-tetramethyl-chroman-6-carboxylic acid 4-ethoxycarbonylmethyl-phenyl ester] |
| > 10 | > 10 | 7.62 | C#Cc1cc(C#Cc2ccc(CC(=O)O)cc2)cc2c1OC(C)(C)CC2(C)C [Compound 40, [4-(8-Ethynyl-2,2,4,4-tetramethyl-chroman-6-ylethynyl)-phenyl]-acetic acid] |
| > 10 | > 10 | > 10 | CC1(C)CC(C)(C)c2cc(C(=O)Oc3ccc(CC(=O)O)c(F)c3)cc(C#N)c2O1 [Compound 32, 8-Cyano-2,2,4,4-tetramethyl-chroman-6-carboxylic acid-4-carboxymethyl-3-fluoro-phenyl ester] |
| 3.47 | > 10 | 6.56 | C#Cc1cc(C(=O)Oc2ccc(CC(=O)O)c(F)c2)cc2c1OC(C)(C)CC2(C)C [Compound 4, 8-Ethynyl-2,2,4,4-tetramethyl-chroman-6-carboxylic acid-4-carboxymethyl-3-fluoro-phenyl ester] |
| > 10 | > 10 | > 10 | C#Cc1cc(C(=O)Oc2ccc(CC(=O)O)cc2)cc2c1OC(C)(C)CC2(C)C [Compound 1, 8-Ethynyl-2,2,4,4-tetramethyl-chroman-6-carboxylic acid 4-carboxymethyl-phenyl ester] |
| 7.24 | 8.24 | > 10 | C#CCc1cc(C#Cc2ccc(CC(=O)O)cc2)cc2c1OC(C)(C)CC2(C)C [Compound 49] |

| SMILES | Kd (RARα) [µM] | Kd (RARγ) [µM] | Kd (RARβ) [µM] |
| --- | --- | --- | --- |
| C#Cc1cc(C(=O)Oc2ccc(CC(=O)OCOC(C)=O)c(F)c2)cc2c1OC(C)(C)CC2(C)C [Compound 5, 8-Ethynyl-2,2,4,4-tetramethyl-chroman-6-carboxylic acid 4-acetoxymethoxycarbonylmethyl-3-fluoro-phenyl ester] | 4.68 | > 10 | 5.55 |
| CC(=O)OCOC(=O)Cc1ccc(OC(=O)c2cc(C#N)c3c(c2)C(C)(C)CC(C)(C)O3)cc1F [Compound 33, 8-Cyano-2,2,4,4-tetramethyl-chroman-6-carboxylic acid 4-acetoxymethoxycarbonylmethyl-3-fluoro-phenyl ester] | > 10 | > 10 | > 10 |
| C#Cc1cc(C(=O)Oc2ccc(CC(=O)OCOC(C)=O)cc2)cc2c1OC(C)(C)CC2(C)C [Compound 3, 8-Ethynyl-2,2,4,4-tetramethyl-chroman-6-carboxylic acid 4-acetoxymethoxycarbonylmethyl-phenyl ester] | > 10 | > 10 | > 10 |
